Data from patent publication US6610853B1, “N-(phenylsulfonyl)picolinamide derivatives, process for producing the same, and herbicide” (Kureha Kagaku Kogyo K.K., priority 2000, dated 2003).

Key:
Assay in all cases: Test on herbicidal activity by foliar application
Assay type in all cases: in vivo
Conditions in all cases: foliar spray, 1 kg/ha, plants at 1-2 leaf stage in pots, evaluated 14 days after spraying
Abutilon theophrasti = system: Abutilon theophrasti
In short: (§1)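 Plants are grown in pots to the 1-2 leaf stage, then sprayed over the foliage with the compound formulated as a wettable powder at 1 kg/ha. After 14 days, inhibition is rated 1-5, from <30% to ≥90%.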

Amaranthus retroflexus = system: Amaranthus retroflexus
In short: as §1

Bidens pilosa = system: Bidens pilosa
In short: as §1

Convolvulus arvensis = system: Convolvulus arvensis
In short: as §1

Galium aparine = system: Galium aparine
In short: as §1

Matricaria chamomilla = system: Matricaria chamomilla
In short: as §1

Setaria viridis = system: Setaria viridis
In short: as §1

Sinapis arvensis = system: Sinapis arvensis
In short: as §1

Solanum nigrum = system: Solanum nigrum
In short: as §1

Stellaria media = system: Stellaria media
In short: as §1

Veronica hederaefolia = system: Veronica hederaefolia
In short: as §1

`COc1cc(Cl)nc(C(=O)NS(=O)(=O)c2ccccc2S(=O)(=O)N(C)OC)c1` [Compound I-838, 6-Chloro-4-methoxy-N-[[2-(N-methyl-N-methoxyamino)sulfonyl]phenylsulfonyl]-2-pyridinecarboxamide] was tested, and the “Herbicidal activity, Abutilon theophrasti” value (Abutilon theophrasti) was 5 (90% or more inhibition), the “Herbicidal activity, Amaranthus retroflexus” value (Amaranthus retroflexus) was 4 (70% or more-90% inhibition) and the “Herbicidal activity, Bidens pilosa” value (Bidens pilosa) was 5 (90% or more inhibition). For the same compound, the “Herbicidal activity, Convolvulus arvensis” value (Convolvulus arvensis) was 5 (90% or more inhibition), the “Herbicidal activity, Galium aparine” value (Galium aparine) was 5 (90% or more inhibition) and the “Herbicidal activity, Matricaria chamomilla” value (Matricaria chamomilla) was 5 (90% or more inhibition). For the same compound, the “Herbicidal activity, Setaria viridis” value (Setaria viridis) was 5 (90% or more inhibition), the “Herbicidal activity, Sinapis arvensis” value (Sinapis arvensis) was 5 (90% or more inhibition) and the “Herbicidal activity, Solanum nigrum” value (Solanum nigrum) was 5 (90% or more inhibition). The “Herbicidal activity, Stellaria media” value (Stellaria media) was 4 (70% or more-90% inhibition) and the “Herbicidal activity, Veronica hederaefolia” value (Veronica hederaefolia) was 4 (70% or more-90% inhibition).
In the case of `COC(=O)c1ccccc1S(=O)(=O)NC(=O)c1cccc(Cl)n1` [Compound I-231, 2-[[[(6-Chloropyridin-2-yl)carbonyl]amino]-sulfonyl]benzoic Acid Methyl Ester], the “Herbicidal activity, Abutilon theophrasti” value (Abutilon theophrasti) is reported as 5 (90% or more inhibition), the “Herbicidal activity, Amaranthus retroflexus” value (Amaranthus retroflexus) is reported as 5 (90% or more inhibition) and the “Herbicidal activity, Bidens pilosa” value (Bidens pilosa) is reported as 5 (90% or more inhibition). For the same compound, the “Herbicidal activity, Convolvulus arvensis” value (Convolvulus arvensis) was 4 (70% or more-90% inhibition), the “Herbicidal activity, Galium aparine” value (Galium aparine) was 5 (90% or more inhibition) and the “Herbicidal activity, Matricaria chamomilla” value (Matricaria chamomilla) was 5 (90% or more inhibition). The “Herbicidal activity, Setaria viridis” value (Setaria viridis) was 5 (90% or more inhibition), the “Herbicidal activity, Sinapis arvensis” value (Sinapis arvensis) was 5 (90% or more inhibition) and the “Herbicidal activity, Solanum nigrum” value (Solanum nigrum) was 5 (90% or more inhibition). For the same compound, the “Herbicidal activity, Stellaria media” value (Stellaria media) was 5 (90% or more inhibition) and the “Herbicidal activity, Veronica hederaefolia” value (Veronica hederaefolia) was 5 (90% or more inhibition).
With `COc1ccc(C(=O)NS(=O)(=O)c2ccccc2S(=O)(=O)N(C)C)nc1Br` [Compound I-895, N-[[2-(N,N-Dimethylaminosulfonyl)phenyl]-sulfonyl]-6-bromo-5-methoxy-2-pyridinecarboxamide] the “Herbicidal activity, Abutilon theophrasti” value (Abutilon theophrasti) was 5 (90% or more inhibition), the “Herbicidal activity, Amaranthus retroflexus” value (Amaranthus retroflexus) was 5 (90% or more inhibition) and the “Herbicidal activity, Bidens pilosa” value (Bidens pilosa) was 5 (90% or more inhibition). The “Herbicidal activity, Convolvulus arvensis” value (Convolvulus arvensis) was 5 (90% or more inhibition), the “Herbicidal activity, Galium aparine” value (Galium aparine) was 5 (90% or more inhibition) and the “Herbicidal activity, Matricaria chamomilla” value (Matricaria chamomilla) was 5 (90% or more inhibition). For the same compound, the “Herbicidal activity, Setaria viridis” value (Setaria viridis) was 5 (90% or more inhibition), the “Herbicidal activity, Sinapis arvensis” value (Sinapis arvensis) was 5 (90% or more inhibition) and the “Herbicidal activity, Solanum nigrum” value (Solanum nigrum) was 5 (90% or more inhibition). The “Herbicidal activity, Stellaria media” value (Stellaria media) was 5 (90% or more inhibition) and the “Herbicidal activity, Veronica hederaefolia” value (Veronica hederaefolia) was 5 (90% or more inhibition).
In the case of `CN(C)S(=O)(=O)c1ccccc1S(=O)(=O)NC(=O)c1cccc(Cl)n1` [Compound I-861, N-[[2-(N,N-Dimethylaminosulfonyl)phenyl]-sulfonyl)-6-chloro-2-pirydinecarboxamide], the “Herbicidal activity, Abutilon theophrasti” value (Abutilon theophrasti) is reported as 5 (90% or more inhibition), the “Herbicidal activity, Amaranthus retroflexus” value (Amaranthus retroflexus) is reported as 5 (90% or more inhibition) and the “Herbicidal activity, Bidens pilosa” value (Bidens pilosa) is reported as 5 (90% or more inhibition). The “Herbicidal activity, Convolvulus arvensis” value (Convolvulus arvensis) was 5 (90% or more inhibition), the “Herbicidal activity, Galium aparine” value (Galium aparine) was 5 (90% or more inhibition) and the “Herbicidal activity, Matricaria chamomilla” value (Matricaria chamomilla) was 5 (90% or more inhibition). For the same compound, the “Herbicidal activity, Setaria viridis” value (Setaria viridis) was 5 (90% or more inhibition), the “Herbicidal activity, Sinapis arvensis” value (Sinapis arvensis) was 5 (90% or more inhibition) and the “Herbicidal activity, Solanum nigrum” value (Solanum nigrum) was 5 (90% or more inhibition). For the same compound, the “Herbicidal activity, Stellaria media” value (Stellaria media) was 5 (90% or more inhibition) and the “Herbicidal activity, Veronica hederaefolia” value (Veronica hederaefolia) was 4 (70% or more-90% inhibition).
In the case of `COC(=O)c1ccccc1S(=O)(=O)NC(=O)c1cc(OC)cc(Cl)n1` [Compound I-255, 2-[[[(6-Chloro-4-methoxypyridin-2-yl)carbonyl]-amino]sulfonyl]benzoic Acid Methyl Ester], the “Herbicidal activity, Abutilon theophrasti” value (Abutilon theophrasti) is reported as 5 (90% or more inhibition), the “Herbicidal activity, Amaranthus retroflexus” value (Amaranthus retroflexus) is reported as 4 (70% or more-90% inhibition) and the “Herbicidal activity, Bidens pilosa” value (Bidens pilosa) is reported as 5 (90% or more inhibition). For the same compound, the “Herbicidal activity, Convolvulus arvensis” value (Convolvulus arvensis) was 5 (90% or more inhibition), the “Herbicidal activity, Galium aparine” value (Galium aparine) was 5 (90% or more inhibition) and the “Herbicidal activity, Matricaria chamomilla” value (Matricaria chamomilla) was 5 (90% or more inhibition). The “Herbicidal activity, Setaria viridis” value (Setaria viridis) was 4 (70% or more-90% inhibition), the “Herbicidal activity, Sinapis arvensis” value (Sinapis arvensis) was 5 (90% or more inhibition) and the “Herbicidal activity, Solanum nigrum” value (Solanum nigrum) was 5 (90% or more inhibition). The “Herbicidal activity, Stellaria media” value (Stellaria media) was 5 (90% or more inhibition) and the “Herbicidal activity, Veronica hederaefolia” value (Veronica hederaefolia) was 5 (90% or more inhibition).
With `COc1cc(Cl)nc(C(=O)NS(=O)(=O)c2c(F)cccc2F)c1` [Compound I-975, N-[(2,6-Difluorophenyl)sulfonyl]-6-chloro-4-methoxy-2-pyridinecarboxamide] the “Herbicidal activity, Abutilon theophrasti” value (Abutilon theophrasti) was 5 (90% or more inhibition), the “Herbicidal activity, Amaranthus retroflexus” value (Amaranthus retroflexus) was 3 (50% or more-70% inhibition) and the “Herbicidal activity, Bidens pilosa” value (Bidens pilosa) was 5 (90% or more inhibition). The “Herbicidal activity, Convolvulus arvensis” value (Convolvulus arvensis) was 4 (70% or more-90% inhibition), the “Herbicidal activity, Galium aparine” value (Galium aparine) was 5 (90% or more inhibition) and the “Herbicidal activity, Matricaria chamomilla” value (Matricaria chamomilla) was 4 (70% or more-90% inhibition). The “Herbicidal activity, Setaria viridis” value (Setaria viridis) was 3 (50% or more-70% inhibition), the “Herbicidal activity, Sinapis arvensis” value (Sinapis arvensis) was 5 (90% or more inhibition) and the “Herbicidal activity, Solanum nigrum” value (Solanum nigrum) was 5 (90% or more inhibition). The “Herbicidal activity, Stellaria media” value (Stellaria media) was 4 (70% or more-90% inhibition) and the “Herbicidal activity, Veronica hederaefolia” value (Veronica hederaefolia) was 3 (50% or more-70% inhibition).
